From ChEMBL document CHEMBL1142084, “In vitro activities of tigecycline and eight other antimicrobials against different Nocardia species identified by molecular methods” (2007)
≈ marks a conversion by molar mass, not a printed value.

Tests used:
Assay type in all cases: functional
Nocardia veterana = assay: Antimicrobial activity against Nocardia veterana after 72 hrs by microdilution method
Nocardia farcinica = assay: Antimicrobial activity against Nocardia farcinica after 72 hrs by microdilution method
[1] = system: Nocardia otitidiscaviarum; assay: Antimicrobial activity against Nocardia otitidiscaviarum after 72 hrs by microdilution method
Nocardia beijingensis = assay: Antimicrobial activity against Nocardia beijingensis after 72 hrs by microdilution method
Nocardia cyriacigeorgica = assay: Antimicrobial activity against Nocardia cyriacigeorgica after 72 hrs by microdilution method
Nocardia carnea = assay: Antimicrobial activity against Nocardia carnea after 72 hrs by microdilution method
Nocardia abscessus = assay: Antimicrobial activity against Nocardia abscessus after 72 hrs by microdilution method
Nocardia sp. = assay: Antimicrobial activity against Nocardia sp. after 72 hrs by microdilution method
Nocardia brasiliensis = assay: Antimicrobial activity against Nocardia brasiliensis after 72 hrs by microdilution method
Nocardia transvalensis = assay: Antimicrobial activity against Nocardia transvalensis after 72 hrs by microdilution method
Nocardia nova = assay: Antimicrobial activity against Nocardia nova after 72 hrs by microdilution method

`COc1c(N2C[C@@H]3CCCN[C@@H]3C2)c(F)cc2c(=O)c(C(=O)O)cn(C3CC3)c12` [MOXIFLOXACIN] showed an MIC (Nocardia veterana) of 0.5 µg/mL (≈ 1.25 µM), an MIC (Nocardia farcinica) of at most 0.06 µg/mL and an MIC [1] of at most 0.06 µg/mL. The MIC (Nocardia beijingensis) was at most 0.06 µg/mL, the MIC (Nocardia cyriacigeorgica) was at most 0.06 µg/mL and the MIC (Nocardia carnea) was at most 0.06 µg/mL. For the same molecule, the MIC (Nocardia abscessus) was 1 µg/mL (≈ 2.49 µM), the MIC (Nocardia sp.) was at most 0.06 µg/mL and the MIC (Nocardia brasiliensis) was at most 0.06 µg/mL. It also gave an MIC (Nocardia transvalensis) of 0.12 µg/mL (≈ 0.299 µM) and an MIC (Nocardia nova) of 2 µg/mL (≈ 4.98 µM).

`C[C@@H](O)[C@H]1C(=O)N2C(C(=O)O)=C(S[C@@H]3CN[C@H](C(=O)Nc4cccc(C(=O)O)c4)C3)[C@H](C)[C@H]12` [ERTAPENEM] gave an MIC (Nocardia veterana) of 0.25 µg/mL (≈ 0.526 µM), an MIC (Nocardia farcinica) of 4 µg/mL (≈ 8.41 µM) and an MIC [1] of 1 µg/mL (≈ 2.1 µM). The MIC (Nocardia beijingensis) was 2 µg/mL (≈ 4.21 µM), the MIC (Nocardia cyriacigeorgica) was at most 0.06 µg/mL and the MIC (Nocardia carnea) was 2 µg/mL (≈ 4.21 µM). It also gave an MIC (Nocardia abscessus) of 0.5 µg/mL (≈ 1.05 µM), an MIC (Nocardia sp.) of 0.25 µg/mL (≈ 0.526 µM) and an MIC (Nocardia brasiliensis) of 2 µg/mL (≈ 4.21 µM). It also gave an MIC (Nocardia transvalensis) of over 64 µg/mL and an MIC (Nocardia nova) of 0.5 µg/mL (≈ 1.05 µM).

For `C[C@@H](O)[C@H]1C(=O)N2C(C(=O)O)=C(S[C@@H]3CN[C@H](C(=O)N(C)C)C3)[C@H](C)[C@H]12` [MEROPENEM], the MIC (Nocardia veterana) was 0.12 µg/mL (≈ 0.313 µM), the MIC (Nocardia farcinica) was 2 µg/mL (≈ 5.22 µM) and the MIC [1] was 1 µg/mL (≈ 2.61 µM). For the same molecule, the MIC (Nocardia beijingensis) was 2 µg/mL (≈ 5.22 µM), the MIC (Nocardia cyriacigeorgica) was at most 0.06 µg/mL and the MIC (Nocardia carnea) was 1 µg/mL (≈ 2.61 µM). It also gave an MIC (Nocardia abscessus) of 0.25 µg/mL (≈ 0.652 µM), an MIC (Nocardia sp.) of at most 0.06 µg/mL and an MIC (Nocardia brasiliensis) of 1 µg/mL (≈ 2.61 µM). It also gave an MIC (Nocardia transvalensis) of over 64 µg/mL and an MIC (Nocardia nova) of 0.5 µg/mL (≈ 1.3 µM).

`C[C@@H](O)[C@H]1C(=O)N2C(C(=O)O)=C(SCCNC=N)C[C@H]12` [IMIPENEM ANHYDROUS] showed an MIC (Nocardia veterana) of at most 0.06 µg/mL, an MIC (Nocardia farcinica) of 1 µg/mL (≈ 3.34 µM) and an MIC [1] of 0.5 µg/mL (≈ 1.67 µM). The MIC (Nocardia beijingensis) was 0.5 µg/mL (≈ 1.67 µM), the MIC (Nocardia cyriacigeorgica) was at most 0.06 µg/mL and the MIC (Nocardia carnea) was 0.5 µg/mL (≈ 1.67 µM). For the same molecule, the MIC (Nocardia abscessus) was 0.5 µg/mL (≈ 1.67 µM), the MIC (Nocardia sp.) was at most 0.06 µg/mL and the MIC (Nocardia brasiliensis) was 1 µg/mL (≈ 3.34 µM). For the same molecule, the MIC (Nocardia transvalensis) was over 64 µg/mL and the MIC (Nocardia nova) was 0.12 µg/mL (≈ 0.401 µM).

For `CN(C)c1ccc(O)c2c1C[C@H]1C[C@H]3[C@H](N(C)C)C(O)=C(C(N)=O)C(=O)[C@@]3(O)C(O)=C1C2=O` [MINOCYCLINE], the MIC (Nocardia veterana) was 1 µg/mL (≈ 2.19 µM), the MIC (Nocardia farcinica) was 1 µg/mL (≈ 2.19 µM) and the MIC [1] was 0.5 µg/mL (≈ 1.09 µM). It also gave an MIC (Nocardia beijingensis) of at most 0.06 µg/mL, an MIC (Nocardia cyriacigeorgica) of at most 0.06 µg/mL and an MIC (Nocardia carnea) of 0.5 µg/mL (≈ 1.09 µM). For the same molecule, the MIC (Nocardia abscessus) was at most 0.06 µg/mL, the MIC (Nocardia sp.) was 0.25 µg/mL (≈ 0.546 µM) and the MIC (Nocardia brasiliensis) was 1 µg/mL (≈ 2.19 µM). It also gave an MIC (Nocardia transvalensis) of 1 µg/mL (≈ 2.19 µM) and an MIC (Nocardia nova) of 1 µg/mL (≈ 2.19 µM).

Work on `CC(=O)NC[C@H]1CN(c2ccc(N3CCOCC3)c(F)c2)C(=O)O1` [LINEZOLID] yielded an MIC (Nocardia veterana) of 0.25 µg/mL (≈ 0.741 µM), an MIC (Nocardia farcinica) of 0.12 µg/mL (≈ 0.356 µM) and an MIC [1] of at most 0.06 µg/mL. It also gave an MIC (Nocardia beijingensis) of at most 0.06 µg/mL, an MIC (Nocardia cyriacigeorgica) of 0.12 µg/mL (≈ 0.356 µM) and an MIC (Nocardia carnea) of at most 0.06 µg/mL. The MIC (Nocardia abscessus) was at most 0.06 µg/mL, the MIC (Nocardia sp.) was at most 0.06 µg/mL and the MIC (Nocardia brasiliensis) was 1 µg/mL (≈ 2.96 µM). The MIC (Nocardia transvalensis) was 1 µg/mL (≈ 2.96 µM) and the MIC (Nocardia nova) was 0.12 µg/mL (≈ 0.356 µM).

Molecule `CN(C)c1cc(NC(=O)CNC(C)(C)C)c(O)c2c1C[C@H]1C[C@H]3[C@H](N(C)C)C(O)=C(C(N)=O)C(=O)[C@@]3(O)C(O)=C1C2=O` [TIGECYCLINE] has an MIC (Nocardia veterana) of 0.12 µg/mL (≈ 0.205 µM), an MIC (Nocardia farcinica) of 1 µg/mL (≈ 1.71 µM) and an MIC [1] of at most 0.06 µg/mL. The MIC (Nocardia beijingensis) was 0.25 µg/mL (≈ 0.427 µM), the MIC (Nocardia cyriacigeorgica) was at most 0.06 µg/mL and the MIC (Nocardia carnea) was at most 0.06 µg/mL. The MIC (Nocardia abscessus) was at most 0.06 µg/mL, the MIC (Nocardia sp.) was at most 0.06 µg/mL and the MIC (Nocardia brasiliensis) was at most 0.06 µg/mL. It also gave an MIC (Nocardia transvalensis) of 2 µg/mL (≈ 3.41 µM) and an MIC (Nocardia nova) of 0.5 µg/mL (≈ 0.854 µM).

`NCC[C@H](O)C(=O)N[C@@H]1C[C@H](N)[C@@H](O[C@H]2O[C@H](CN)[C@@H](O)[C@H](O)[C@H]2O)[C@H](O)[C@H]1O[C@H]1O[C@H](CO)[C@@H](O)[C@H](N)[C@H]1O` [AMIKACIN] gave an MIC (Nocardia veterana) of 0.25 µg/mL (≈ 0.427 µM), an MIC (Nocardia farcinica) of 1 µg/mL (≈ 1.71 µM) and an MIC [1] of 1 µg/mL (≈ 1.71 µM). It also gave an MIC (Nocardia beijingensis) of at most 0.06 µg/mL, an MIC (Nocardia cyriacigeorgica) of at most 0.06 µg/mL and an MIC (Nocardia carnea) of 0.5 µg/mL (≈ 0.854 µM). The MIC (Nocardia abscessus) was at most 0.06 µg/mL, the MIC (Nocardia sp.) was 0.25 µg/mL (≈ 0.427 µM) and the MIC (Nocardia brasiliensis) was 1 µg/mL (≈ 1.71 µM). For the same molecule, the MIC (Nocardia transvalensis) was 32 µg/mL (≈ 54.6 µM) and the MIC (Nocardia nova) was 0.12 µg/mL (≈ 0.205 µM).
